{"source": "patent US20200207820A1", "about": "“ANTIVIRAL, ANTIFIBROTIC AND ANTICANCER ACTIVITIES OF ROYAL-JELLY PROTEINS” (priority 2017, published 2020)", "molecules": {"B1": {"name": "MRJP2: major royal jelly protein 2, bound protein purified from PF50 by CM-Sephadex ion-exchange chromatography (protein, UniProt O77061 18-452, looked up)", "Major royal jelly protein 2": "AIVRENSPRNLEKSLNVIHEWKYFDYDFGSEERRQAAIQSGEYDHTKNYPFDVDQWRDKTFVTILRYDGVPSTLNVISGKTGKGGRLLKPYPDWSFAEFKDCSKIVSAFKIAIDKFDRLWVLDSGLVNRTVPVCAPKLHVFDLKTSNHLKQIEIPHDIAVNATTGKGGLVSLAVQAIDLANTLVYMADHKGDALIVYQNADDSFHRLTSNTFDYDPRYAKMTIDGESFTLKNGICGMALSPVTNNLYYSPLASHGLYYVNTAPFMKSQFGENNVQYQGSEDILNTQSLAKAVSKNGVLFVGLVGNSAVGCWNEHQSLQRQNLEMVAQNDRTLQMIAGMKIKEELPHFVGSNKPVKDEYMLVLSNRMQKIVNDDFNFDDVNFRILGANVKELIRNTHCVNNNQNDNIQNTNNQNDNNQKNNKKNANNQKNNNQNDN"}}, "key": {"[1]": {"system": "HCV", "experiment": "Qualitative screening for HCV (+) strand RNA by RT-nested PCR in infected PBMCs and HepG-2 cells", "type": "cell-based, Hepatitis C virus", "conditions": "HCV-infected PBMCs and HepG-2 cells, 72 h; RJ 0.2 and 1 mg, PFs 1 mg, MRJPs 250 μg, SOV 4 mg (PBMCs only)", "experimental": "(§1) PBMCs were obtained by Ficoll-Hypaque density gradient centrifugation method as described previously. In brief, the blood samples from healthy volunteers were diluted with equal volume of PBS, carefully layered on Ficoll-Hypaque, and centrifuged at 2000 rpm, 25° C. for 30 min. Then the undisturbed PBMCs layer (interface) was carefully transferred out, washed with 40 ml RPMI-1640 medium, and centrifuged at 1650 rpm for 10 min. Finally, the supernatant was removed and the cells were suspended in 5 ml of RPMI-1640 medium containing 10% FBS and counted using trypan blue stain.\n(§2) HepG-2 cells were grown in RPMI-1640 medium (HyClone) supplemented with 10% heat-inactivated FBS.\n(§3) Serum samples were obtained from HCV and HBV infected […] patients […] after agreement by the ethics committee. The HCV and HBV samples were positive for genotype 4a and D, respectively. The infected patients were neither under treatment prior to the study nor co-infected. The sera were kept at −80° C. until use. […]\nAfter cellular infection, the infected medium was replaced with a fresh RPMI-1640 medium containing 10% FBS for positive control wells. […] The HCV (+) strand was detected by reverse transcription-nested polymerase chain reaction (RT-nested PCR) using the Ready-To-Go RT-PCR beads (Amersham Pharmacia Biotech, Piscataway, N.J., USA) following the instructions. […]"}, "[2]": {"system": "HCV", "experiment": "Quantitative analysis of intracellular HCV-RNA (Cobas Ampliprep TaqMan)", "type": "cell-based, Hepatitis C virus", "conditions": "PBMCs and HepG-2 cells, 72 h; SOV in PBMCs only", "experimental": "as §1, §2, §3\n(§4) SOV at the concentration of 4 mg was incubated only with HCV or HBV-infected PBMCs due to its potent anti-cancer effect. […] Then the HCV-RNA and HBV-DNA within these cells were quantified using the fully automated Cobas Ampliprep TaqMan Analyzer (CAP-CTM). This technique is one of the most recent techniques that used for diagnosis of viral hepatitis quantitatively. […]"}, "[3]": {"system": "HBV", "experiment": "Quantitative analysis of intracellular HBV-DNA (Cobas Ampliprep TaqMan)", "type": "cell-based, hepatitis B virus", "conditions": "PBMCs and HepG-2 cells, 72 h; SOV in PBMCs only", "experimental": "as §1, §2, §3, §4"}, "[4]": {"system": "hepatocytes", "experiment": "In vitro assessment of liver fibrosis: CCl4-induced fibrosis in hepatocytes", "type": "cell-based, Albino rats", "experimental": "Hepatocytes were isolated from the liver of two male Albino rats 1 week of age. Rats were anesthetized, then liver was dissected, washed and incubated for 15 min with 10× penicillin and streptomycin. Afterward, the liver was washed using PBS, minced and incubated for 30 min with 3 U/mL of collagenase I with gentle shaking to obtain the cell suspension. The solution was centrifuged for […] at 1000 rpm and the pellet (hepatocytes) was washed, suspended in William's E medium containing 10% FBS and incubated at […] in CO2 incubator. After 90% cell confluent, hepatocytes were passaged with trypsin-EDTA. Then cells were stained with trypan blue, checked for viability and counted using the phase contrast inverted microscope (Olympus IX 81, Tokyo, Japan).\nFor induction of fibrosis, hepatocytes were incubated with various concentrations (0.13-1.30 mM) of CCl4 for 48 h. At the end of the incubation period, the cell viability was assessed and the IC50 value (half maximal inhibitory concentration of CCl4 to the hepatocytes growth) was calculated by the GraphPad Instat software version 3. This value was used for in vitro induction of fibrosis in hepatocytes (FM). After induction, Fb1 was incubated with the safe concentration of each of the studied compounds and incubated for 72 h at 5% CO2 and 37° C. The normal cells and the untreated Fb1 (Fb) were involved as negative and positive control cells, respectively.\nAt the end of the incubation period, media were collected and used in the assessment of the hepatocyte damage indices. However, cells were examined morphologically for identification of apoptosis.\nAlanine and aspartate aminotransferases (ALT and AST), and albumin were determined using available commercial kits (RAM, Egypt). TNF-α (ELISA kit, RayBiotech, USA) and collagen IV (ELISA kit, Kamiya Biomedical) were determined following the manufacturer's instructions. Nitric oxide (NO) level was assessed by measurement of the nitrite using the Griess reaction, which produced colored azo dye with a maximum absorbance at 490 nm. Hydroxyproline content in the medium was measured using chloramines T and […] solutions. The absorbance of the produced color was read spectrophotometrically at 560 nm and the concentration was determined from the hydroxyproline calibration curve.\nApoptosis was investigated by double staining cells after washing with PBS with 100 μg/mL of ethidium bromide (EB) and acridine orange (AO) as described previously and then visualized under the fluorescent phase contrast microscope."}, "[5]": {"system": "HepG-2 cell line", "experiment": "Anti-cancer assay (MTT)", "type": "cell-based, human", "conditions": "HepG-2 cells, 72 h", "experimental": "The cytotoxic effect of RJ and its isolated PFs against HepG-2 cell line were evaluated. The cell viability was determined by MTT assay to investigate the cytotoxicity. Cells (3×10^3/well) were seeded in 96-well plate and left to attach for overnight. Serial concentrations (6.25-100 μM) of each of the tested compounds were added to the attached cells and incubated for 72 h at 37° C. in an atmosphere of 5% CO2 and the untreated cells were included as negative control. Then, 20 μl of MTT solution (0.5 mg/ml) was added to each well and the plate was incubated at 37° C. and 5% CO2 for 4 h. The medium with MTT was replaced by 150 μl of DMSO and the absorbance of the produced color was read at 570 nm by the microplate reader. The concentration of each of the studied compounds that inhibit the cancer cell growth by 50% (IC50 values) was determined from the dose-response curves. Additionally, the morphological changes of the tumor cells were examined using the phase-contrast microscope."}, "[6]": {"experiment": "Acute toxicity (Karber's method)", "type": "in vivo, male Albino rats", "experimental": "Karber's method was used to study the acute toxicity effect of RJ in comparison with SOV using male Albino rats and the median lethal dosage (LD50) was calculated.\nFifty-five male Albino rats (80-120 g) were purchased from MISR University for Science and Technology (animal welfare assurance number A5865-01). Animals were housed in metal cages and allowed free access to a standard commercial diet and tap water. Rats were kept under conventional conditions of temperature, humidity and twelve hours light/dark cycle. All rats were acclimatized to the laboratory environment for one week prior to handling and were observed daily for abnormal signs. Handling of animals complied with the international guide for the care and use of laboratory animals (National Research Council, 1996).\nAnimals were divided into eleven groups (five animals in each) starting from group I to group X beside the control (received only water as the vehicle). Groups from (I) to (V) were administered RJ intraperitoneally, while groups from (VI) to (X) were orally received SOV using the gavage tube. RJ and SOV were given to the animals at various doses (140, 350, 700, 2500 and 5000 mg/kg bw), one dose for each group of animals (group I and VI received the lowest dose).\nAll animals were left for 24 h after RJ or SOV administration, and then the number of mortality in each group was recorded for calculation of the LD50 value. Also, the weights of animals in each group were recorded before sacrificing by decapitation. Blood samples were collected in heparin tubes by cardiac puncture for assessment of the erythrocytes, hematocrit (HCT), hematimetric indices, hemoglobin (Hb), platelets, and leukocytes (full and differential counts). In addition, ALT and AST, total proteins, albumin, urea, creatinine, sodium, potassium, triglycerides (TG) and cholesterol were determined using available commercial kits (RAM, Egypt). The vital organs including liver, lung, kidney, and spleen were carefully excised, weighed and examined."}, "[7]": {"conditions": "SOV oral 2500 and 5000 mg/kg bw"}}, "note": "“Also recorded” adds a separate entry of the source.", "data": [{"molecule": "CC(C)OC(=O)[C@H](C)N[P@](=O)(OC[C@H]1O[C@@H](n2ccc(=O)[nH]c2=O)[C@](C)(F)[C@@H]1O)Oc1ccccc1", "note": "[SOV, Sofosbuvir]", "values": [{"measurement": "anti-HCV effect (HCV (+) strand RNA, RT-nested PCR)", "setting": "[1]", "value": "anti-HCV effect"}, {"measurement": "efficacy against HCV (intracellular HCV)", "setting": "[2]", "value": "less anti-HCV"}, {"measurement": "efficacy against HBV / activity of HBV (intracellular HBV)", "setting": "[3]", "value": "increases the activity of HBV"}, {"measurement": "collagen and hydroxyproline levels", "setting": "[4]; CCl4-induced fibrosis in hepatocytes (Fb1)", "value": "suppressive effect"}, {"measurement": "antifibrotic / therapeutic effect overall", "setting": "[4]; CCl4-induced fibrosis in hepatocytes, compared with SM and SOV", "value": "less antifibrotic activities"}, {"measurement": "inflammatory mediators' level (NO and TNF-α)", "setting": "[4]; fibrotic cells (Fb1)", "value": "anti-inflammatory effect"}, {"measurement": "hepatocytes morphology / apoptosis (acridine orange/ethidium bromide staining)", "setting": "[4]; fibrotic hepatocytes (Fb1), 72 h treatment, 200 μg/mL", "value": "less potency"}, {"measurement": "cytotoxic (anticancer) effect", "setting": "[5]", "value": "potent activity"}, {"measurement": "cytotoxic (anticancer) effect", "setting": "[5]; listed as Sovaldi", "value": "more potent anticancer effect than the RJ proteins"}, {"measurement": "body weights", "setting": "[6]; 24 h, all doses, versus control group", "value": "didn't cause any significant change; also recorded: no significant change"}, {"measurement": "hematological parameters", "setting": "[6]; 24 h after administration", "value": "Slight changes"}, {"measurement": "serum urea level", "setting": "[6]; SOV 350-5000 mg/kg bw", "value": "significant elevation"}, {"measurement": "potassium level", "setting": "[6]; SOV 2500, 5000 mg/kg bw", "value": "depleted"}, {"measurement": "serum sodium level", "setting": "[6]; SOV 2500, 5000 mg/kg bw", "value": "elevated"}, {"measurement": "ALT activity", "setting": "[6]; SOV 2500 and 5000 mg/kg bw", "value": "didn't affect"}, {"measurement": "activity of AST", "setting": "[6]; SOV 2500 and 5000 mg/kg bw", "value": "significantly elevated"}, {"measurement": "serum level of albumin", "setting": "[6]; SOV 2500 and 5000 mg/kg bw", "value": "significantly reduce"}, {"measurement": "total proteins level", "setting": "[6]; SOV 2500 and 5000 mg/kg bw", "value": "didn't affect"}, {"measurement": "TG level", "setting": "[6]; SOV nearly at all doses", "value": "significantly increased"}, {"measurement": "cholesterol level", "setting": "[6]; SOV nearly at all doses", "value": "significantly increased"}, {"measurement": "% organ-body weight ratio, spleen", "setting": "[6]; SOV oral 350 to 5000 mg/kg bw", "value": "enlargement"}, {"measurement": "% organ-body weight ratio, liver", "setting": "[6]; [7]", "value": "significant enlargement"}, {"measurement": "% organ-body weight ratio, lung", "setting": "[6]; [7]", "value": "significant enlargement"}, {"measurement": "% organ-body weight ratio, kidney", "setting": "[6]; SOV oral all given doses (140-5000 mg/kg bw)", "value": "significant enlargement"}, {"measurement": "mortality", "setting": "[6]; after 24 h, all studied doses (140-5000 mg/kg bw), RJ intraperitoneal, SOV oral", "value": "no mortality"}, {"measurement": "toxic dose", "setting": "[6]; rats, all the studied doses", "value": "≥ 140", "unit": "mg/kg"}, {"measurement": "toxicity on vital organs", "setting": "[6]; rats, liver, lung, kidney, spleen", "value": "highly toxic effects on kidney, spleen and lung and less toxicity on the liver; also recorded: highly toxic"}]}, {"molecule": "B1", "values": [{"measurement": "anti-HCV effect (HCV (+) strand RNA, RT-nested PCR)", "setting": "[1]", "value": "anti-HCV effect"}, {"measurement": "inflammatory mediators' level (NO and TNF-α)", "setting": "[4]; fibrotic cells (Fb1)", "value": "Normalization"}, {"measurement": "liver function parameters (ALT, AST, albumin) in medium", "setting": "[4]; fibrotic cells (Fb1)", "value": "Improvement"}, {"measurement": "cytotoxic (anticancer) effect", "setting": "[5]", "value": "nearly as potent as SOY and 5-FU"}]}]}
